Results published in patent US11992497B2 (priority 2021, dated 2024).

What was measured:
[1] = system: indomethacin induced intestinal injury; assay: Indomethacin-induced Crohn's disease in rats; format: in vivo; details: for small intestine weight compared to vehicle: all three treatment groups (50, 200, 800 mg/kg PO, days 0-3); for body weight change (prevention of weight loss): all treatment groups (50, 200, 800 mg/kg PO, days 0-3), vs dexamethasone (Compound 2: also vehicle)
Method: The objective of this study was to determine the efficacy of Compound 1 and Compound 2 in a model of Crohn's disease (indomethacin induced intestinal injury) in rats.
The study design was identical for Compound 1 and Compound 2. On study day −3, rats were weighed and distributed into treatment groups based on body weight.
On study day 0, treatment was initiated and continue as indicated in the Study Design Tables below. Groups 2-6 received a subcutaneous injection of indomethacin (9 mg/kg, 1 ml/kg) in 5% sodium bicarbonate (Sterile Water). On study day 1, Groups 2-6 received a second subcutaneous injection of indomethacin (8 mg/kg, 1 ml/kg) in 5% sodium bicarbonate (Sterile Water). Live phase sample & data collection specifics are outlined below. On study day 4, animals will be euthanized, a section of the small intestine will be removed and weighed. Further necropsy sample and data collection is specified below. Overall efficacy of test articles will be based on body weight, small intestine weight (10 cm), small intestine gross score, and histopathology
At necropsy, the small intestines were evaluated visually and given a gross score according to the following criteria: ⋅0=Normal. 0.5=Very Minimal thickening, multifocal in area at risk. 1=Minimal thickening, fairly diffuse in area at risk. 2=Mild to moderate small intestinal/mesenteric thickening throughout area at risk. 3=Moderate thickening with 1 or more definite adhesions that would be easy to separate. 4=Marked thickening with numerous hard to separate adhesions. 5=Severe intestinal lesion resulting in death.
Preserved 9-cm sections of small intestine were trimmed into 6 transverse sections collected at approximately equal intervals along the […] of the intestine, without bias toward lesion presence or absence. These trimmed sections were processed through graded alcohols and a clearing agent, infiltrated and embedded in paraffin, sectioned, and stained with hematoxylin and eosin (H&E).
Small intestine sections from all animals were examined microscopically by a board-certified veterinary pathologist, and observations were entered into a computer-assisted data retrieval system. Cross sections of small intestine were scored for inflammation and necrosis using the following criteria:
The area at risk for development of this lesion is generally approximately 30% of the total area of a cross section of small intestine where the mesentery attaches.
Inflammation is localized to the mesentery and intestinal area at risk for necrosis with slight extension on either side of it. […] In this case, inflammation is scored based on overall severity ranging from 0.5 (very minimal) to 5 (severe) without regard for the extent of necrosis. The mean score for necrosis and inflammation was calculated for each animal and these mean scores were then summed to arrive at a total score. Each section also has a measurement of total width of mucosal necrosis.

UGT1A4 = biological target: T1, UGT1A4 (Homo sapiens, UniProt P22310); assay: UGT reaction phenotyping, recombinant Supersomes; format: in vitro ADME; details: human, recombinant UGT1A4 Supersomes, pH 7.4, Test Conc. 1 μM; for microsomal CLint at 1 µM: read-out: Recombinant UGT CLINT Clearance; for half-life at 1 µM: read-out: Recombinant UGT Half Life T1/2
T1 construct: purchased BD Biosciences
T1 sequence (P22310 29-534): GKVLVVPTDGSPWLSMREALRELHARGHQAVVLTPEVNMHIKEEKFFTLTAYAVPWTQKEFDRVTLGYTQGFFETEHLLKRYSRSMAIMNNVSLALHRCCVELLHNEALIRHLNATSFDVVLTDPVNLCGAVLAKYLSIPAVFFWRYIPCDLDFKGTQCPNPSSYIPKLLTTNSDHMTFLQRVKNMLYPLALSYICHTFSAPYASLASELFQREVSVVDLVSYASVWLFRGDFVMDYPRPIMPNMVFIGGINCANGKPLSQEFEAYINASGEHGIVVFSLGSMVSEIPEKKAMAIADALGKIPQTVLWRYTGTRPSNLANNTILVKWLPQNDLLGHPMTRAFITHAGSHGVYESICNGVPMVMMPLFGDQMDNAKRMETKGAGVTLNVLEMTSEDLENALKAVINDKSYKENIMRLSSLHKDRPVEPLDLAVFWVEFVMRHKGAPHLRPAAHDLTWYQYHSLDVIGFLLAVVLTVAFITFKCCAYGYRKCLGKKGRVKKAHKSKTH
Excerpt: Experimental Summary: UGT Reaction Phenotyping (7 Isoforms).

[2] = Hepatocyte stability and metabolite profiling; format: in vitro ADME, human; details: cryopreserved hepatocytes in suspension; Human cryopreserved hepatocytes
Method: (§1) The objective of this study was to investigate the stability of the test compound, CBG, in human, rat, dog, mouse, monkey and minipig cryopreserved hepatocytes. Follow-on metabolite profiling was performed.
(§2) CBG was incubated up to 2 hr with cryopreserved hepatocytes. Cryopreserved hepatocytes in suspension were added to test compound in supplemented media following pre-incubation to initiate the reaction and the reactions were stopped by organic solvent at the appropriate time points. The termination plates were centrifuged and sample supernatants were analysed using Cyprotex generic LC MS/MS conditions to generate intrinsic clearance values for CBG. Two control compounds for each species were included in the assay and if the values for these compounds were not within the specified limits the results were rejected and the experiment repeated.
(§3) Following the hepatocyte stability assay the samples were 59tilized for metabolite profiling using suitable high-resolution LC-MS/MS conditions. The 40 and 60 minute human samples, 20 and 120 minute rat samples, 10 and 20 minute dog and monkey samples, 20 and 60 minute mouse samples, and 40 and 120 minute minipig samples were compared against the 0 minute control sample to establish which and how many metabolites were formed. […] No further analysis was carried out with the mouse species.
(§4) The areas and percentages reported for the parent and metabolites were calculated using the XIC data. Metabolite observed at greater than 1% of the total of drug related material are reported. […] For accuracy, a ppm error of less than 5 is desirable; when the response for a metabolite observed is low the ppm error maybe greater than 5. Where a metabolite has been referred to as a potential oxidation it can refer to a potential hydroxylation, epoxidation or oxide formation. Representative collision induced dissociation (CID) mass spectra were obtained for the metabolites found.

[3] = system: cryopreserved hepatocytes; assay: Hepatocyte stability and metabolite profiling; format: in vitro ADME, human; details: human hepatocyte samples
Method: as §1, §2, §3, §4

[4] = Compound 1 Group 5 (200 mg/kg PO)
[5] = Compound 1 Groups 4 and 5 (50, 200 mg/kg PO)

Row | Structure (SMILES) | reduction of necrosis width, of vehicle ([1]; Compound 2 Group 5) | histopathology scores vs vehicle and dexamethasone ([1]; Compound 2 Group 5 & 6) | necrosis width vs vehicle and dexamethasone ([1]; Compound 2 Group 5 & 6) | reduction of necrosis width, of vehicle ([1]; Compound 2 Group 6) | Histopathology scores vs vehicle ([1]; Compound 2 Groups 4-6) | necrosis width vs vehicle ([1]; Compound 2 Groups 4-6) | small intestine gross score compared to vehicle ([1]; Group 4 (50 mg/kg PO)) | small intestine gross score compared to vehicle ([1]; Groups 5-6 (200, 800 mg/kg PO)) | small intestine weight compared to vehicle [1] | body weight change (prevention of weight loss) [1] | microsomal CLint at 1 µM (UGT1A4) | half-life at 1 µM (UGT1A4) | half-life [2] | hepatocyte CLint [2] | number of metabolites observed [3] | histopathology scores vs vehicle and dexamethasone [1, 4] | necrosis width vs vehicle and dexamethasone [1, 4] | Histopathology scores vs vehicle and positive control [1, 5] | necrosis width vs vehicle and positive control [1, 5]
1 | CCCCCc1cc(OC)c(C/C=C(\C)CCC=C(C)C)c(OC)c1 [Compound 2, (E)-2-(3,7-dimethylocta-2,6-dien-1-yl)-1,3-dimethoxy-5-pentylbenzene] | 99% | significantly lower | significantly lower | 96% | lower than the vehicle | lower than the vehicle | trend in lower small intestine gross score | significant reductions | significantly lower | trended towards or had significant differences in preventing weight loss |  |  |  |  |  |  |  |  | 
2 | CCCCCc1cc(O)c(C/C=C(\C)CCC=C(C)C)c(O)c1 [CBG, cannabigerol] |  |  |  |  |  |  |  |  |  |  | < 2.89 µL/min/mg | > 4 h | 0.377 h | 61.4 µL/min/1e6 cells | Seven |  |  |  | 
3 | CCCCCc1cc(O)c(C/C=C(\C)CCC=C(C)C)c(OC)c1 [Compound 1, (E)-2-(3,7-dimethylocta-2,6-dien-1-yl)-3-methoxy-5-pentylphenol] |  |  |  |  |  |  | trend in lower small intestine gross score | significant reductions | significantly lower | trended towards or had significant differences in preventing weight loss | < 2.89 µL/min/mg | > 4 h |  |  |  | significantly lower | significantly lower | trended lower | trended lower
